6 compounds from US10681909B2, “Herbicidal triazoles” (FMC Corporation, priority 2014, dated 2020) can be followed below.

SMILES strings stand for the structures.

Experiment [1] deals with ragweed. In words: Test C preemergence. The class given is in vivo, Ambrosia elatior. As to conditions: for Ragweed plant response rating (0 to 100): Preemergence, visual rating after 13 to 15 d; for Plant response rating (scale of 0 to 100 where 0 is no effect and 100 is complete control): Ragweed, preemergence. From the text:
(§1) Seeds of plant species selected from blackgrass (Alopecurus myosuroides), ryegrass, Italian (Italian ryegrass, Lolium multiflorum), wheat (winter wheat, Triticum aestivum), galium (catchweed bedstraw, Galium aparine), corn (Zea mays), crabgrass, large (large crabgrass, Digitaria sanguinalis), foxtail, giant, (giant foxtail, Setaria faberii), johnsongrass (Sorghum halepense), lambsquarters (Chenopodium album), morningglory (Ipomoea coccinea), nutsedge, yellow (yellow nutsedge, Cyperus esculentus), pigweed (Amaranthus retroflexus), ragweed (common ragweed, Ambrosia elatior), soybean (Glycine max), barnyardgrass (Echinochloa crus-galli), oilseed rape (Brassica napus), waterhemp (common waterhemp, Amaranthus rudis), and velvetleaf (Abutilon theophrasti) were planted into a blend of loam soil and sand and treated preemergence with test chemicals formulated in a non-phytotoxic solvent mixture which included a surfactant. At the same time, plants selected from these crop and weed species and also chickweed (common chickweed, Stellaria media), oat, wild (wild oat, Avena fatua), and kochia (Kochia scoparia), were planted in pots containing Sunshine Redi-Earth® planting medium comprising spaghnum peat moss, vermiculite, starter nutrients and dolomitic limestone and treated with postemergence applications of test chemicals formulated in the same manner. Plants ranged in height from 2 to 18 cm (1- to 4-leaf stage) for postemergence treatments. […] A dash (-) response means no test result.

Experiment [2] deals with kochia. In words: Test D postemergence. In kind it is in vivo, Kochia scoparia. The settings on record: scale 0 to 100. The text has this:
(§2) Seeds of plant species selected from bluegrass (annual bluegrass, Poa annua), blackgrass (Alopecurus myosuroides), canarygrass (Phalaris minor), chickweed (common chickweed, Stellaria media), galium (catchweed bedstraw, Galium aparine), bromegrass, down (downy bromegrass, Bromus tectorum), Russian thistle (Salsola kali), field poppy (Papaver rhoeas), field violet (Viola arvensis), foxtail, green (green foxtail, Setaria viridis), deadnettle (henbit deadnettle, Lamium amplexicaule), ryegrass, Ital. (Italian ryegrass, Lolium multiflorum), kochia (Kochia scoparia), lambsquarters (Chenopodium album), oilseed rape (Brassica napus), pigweed (Amaranthus retroflexus), chamomile (scentless chamomile, Matricaria inodora), speedwell (bird's-eye speedwell, Veronica persica), barley, spring (spring barley, Hordeum vulgare), wheat, spring (spring wheat, Triticum aestivum), buckwheat, wild (wild buckwheat, Polygonum convolvulus), wild mustard (Sinapis arvensis), oat, wild (wild oat, Avena fatua), radish, wild (wild radish, Raphanus raphanistrum), […]), barley, winter (winter barley, Hordeum vulgare), and wheat, winter (winter wheat, Triticum aestivum) were planted into a silt loam soil and treated preemergence with test chemicals formulated in a non-phytotoxic solvent mixture which included a surfactant. At the same time, these species were planted in pots containing Sunshine Redi-Earth® planting medium comprising spaghnum peat moss, vermiculite, starter nutrients and dolomitic limestone and treated with postemergence applications of the test chemicals formulated in the same manner. Plants ranged in height from 2 to 18 cm (1- to 4-leaf stage). Treated plants and controls were maintained in a controlled growth environment for 14 to 21 d after which time all species were compared to controls and visually evaluated. […] A dash (-) response means no test result.

The subject of experiment [3] is windgrass. Description: Test D postemergence. The class given is in vivo, Apera spica-venti. As to conditions: scale 0 to 100.
Description: as §2

The test system of experiment [4] is speedwell. In words: Test D postemergence. As to conditions: scale 0 to 100. The class given is in vivo, Veronica persica.
Description: as §2

Experiment [5] concerns kochia. Description: Test D preemergence. In kind it is in vivo, Kochia scoparia. The settings on record: for Plant response rating (0 to 100), Kochia: 16 g ai/ha, 0 is no effect, 100 is complete control; for Plant response rating: Kochia: scale 0 to 100.
Description: as §2

The test system of experiment [6] is morningglory. In words: Test C preemergence. The class given is in vivo, Ipomoea coccinea. The settings on record: for Plant response rating (scale of 0 to 100 where 0 is no effect and 100 is complete control): Morningglory, preemergence; for Morningglory plant response rating (0 to 100): Preemergence, visual rating after 13 to 15 d.
Description: as §1

For `CCOc1nc(-c2ccc(C(F)(F)F)cc2)nn1Cc1ccnc(C(F)(F)F)c1` [Compound 35, 4-[[5-ethoxy-3-[4-(trifluoromethyl)phenyl]-1H-1,2,4-triazole-1-yl]methyl]-2-(trifluoromethyl)pyridine], the “Ragweed plant response rating (0 to 100)” value in experiment [1] (31 g ai/ha) stood at 60; in experiment [1] (62 g ai/ha), 75. Also, the “Plant response rating (scale of 0 to 100 where 0 is no effect and 100 is complete control)” value was 85 in experiment [1] (125 g ai/ha), 90 in experiment [1] (250 g ai/ha), 80 in experiment [6] (125 g ai/ha) and 90 in experiment [6] (250 g ai/ha). The “Plant response rating: Kochia” value in experiment [2] (16 g ai/ha), in experiment [2] (31 g ai/ha), in experiment [2] (62 g ai/ha), in experiment [2] (125 g ai/ha), in experiment [5] (62 g ai/ha) and in experiment [5] (125 g ai/ha) was 90 in each case. In addition, the “Plant response rating: Windgrass” value in experiment [3] (16 g ai/ha) turned out to be 55; in experiment [3] (31 g ai/ha) it was 75; in experiment [3] (62 g ai/ha), 80; in experiment [3] (125 g ai/ha), 90. For the same compound, the “Plant response rating: Speedwell” value is 75 in experiment [4] (16 g ai/ha), 85 in experiment [4] (31 g ai/ha), 90 in experiment [4] (62 g ai/ha) and 100 in experiment [4] (125 g ai/ha). The “Plant response rating (0 to 100), Kochia” value in experiment [5] worked out at 90. Further, the “Morningglory plant response rating (0 to 100)” value stood at 70 in experiment [6] (31 g ai/ha) and 60 in experiment [6] (62 g ai/ha).

Regarding `FC(F)(F)COc1nc(-c2ccc(Cl)cc2)nn1Cc1ccnc(C(F)(F)F)c1` [Compound 31], the “Ragweed plant response rating (0 to 100)” value was found to be 45 in experiment [1] (31 g ai/ha) and 50 in experiment [1] (62 g ai/ha). The “Plant response rating (scale of 0 to 100 where 0 is no effect and 100 is complete control)” value in experiment [1] (125 g ai/ha) is recorded as 65; in experiment [1] (250 g ai/ha), 75; in experiment [6] (125 g ai/ha), 55; in experiment [6] (250 g ai/ha), 65. For the same compound, the “Plant response rating: Kochia” value in experiment [2] (16 g ai/ha) is listed as 80; in experiment [2] (31 g ai/ha), 85; in experiment [2] (62 g ai/ha) it was 90; in experiment [2] (125 g ai/ha) it was 95; in experiment [5] (62 g ai/ha) it was 90; in experiment [5] (125 g ai/ha), 95. Moreover, the “Plant response rating: Windgrass” value amounted to 60 in experiment [3] (16 g ai/ha), 70 in experiment [3] (31 g ai/ha), 75 in experiment [3] (62 g ai/ha) and 80 in experiment [3] (125 g ai/ha). Besides, the “Plant response rating: Speedwell” value amounted to 95 in experiment [4] (16 g ai/ha), 90 in experiment [4] (31 g ai/ha), 100 in experiment [4] (62 g ai/ha) and 100 in experiment [4] (125 g ai/ha). The “Plant response rating (0 to 100), Kochia” value in experiment [5] is 80. Also, the “Morningglory plant response rating (0 to 100)” value in experiment [6] (31 g ai/ha) was 25; in experiment [6] (62 g ai/ha), 45.

Regarding `FC(F)(F)COc1nc(-c2ccccc2)nn1Cc1ccnc(C(F)(F)F)c1` [Compound 24], the “Ragweed plant response rating (0 to 100)” value in experiment [1] (31 g ai/ha) is 5; in experiment [1] (62 g ai/ha) it was 25. In addition, the “Plant response rating (scale of 0 to 100 where 0 is no effect and 100 is complete control)” value in experiment [1] (125 g ai/ha) was determined as 25; in experiment [1] (250 g ai/ha) it was 55; in experiment [6] (125 g ai/ha), 35; in experiment [6] (250 g ai/ha), 40. In addition, the “Plant response rating: Kochia” value in experiment [2] (16 g ai/ha) stood at 85; in experiment [2] (31 g ai/ha), 90; in experiment [2] (62 g ai/ha) it was 90; in experiment [2] (125 g ai/ha), 90; in experiment [5] (62 g ai/ha), 90; in experiment [5] (125 g ai/ha) it was 90. The “Plant response rating: Windgrass” value in experiment [3] (16 g ai/ha) was 20; in experiment [3] (31 g ai/ha), 35; in experiment [3] (62 g ai/ha), 45; in experiment [3] (125 g ai/ha), 60. Moreover, the “Plant response rating: Speedwell” value turned out to be 75 in experiment [4] (16 g ai/ha), 75 in experiment [4] (31 g ai/ha), 75 in experiment [4] (62 g ai/ha) and 90 in experiment [4] (125 g ai/ha). Besides, the “Plant response rating (0 to 100), Kochia” value in experiment [5] is listed as 85. Moreover, the “Morningglory plant response rating (0 to 100)” value worked out at 10 in experiment [6] (31 g ai/ha) and 30 in experiment [6] (62 g ai/ha).

As for `COc1nc(-c2ccc(Cl)cc2)nn1Cc1ccnc(C(F)(F)F)c1` [Compound 28], the “Plant response rating: Kochia” value in experiment [2] (16 g ai/ha) is given as 85; in experiment [2] (31 g ai/ha), 85; in experiment [2] (62 g ai/ha), 85; in experiment [2] (125 g ai/ha), 95; in experiment [5] (62 g ai/ha), 85; in experiment [5] (125 g ai/ha), 95. Also, the “Plant response rating: Windgrass” value in experiment [3] (16 g ai/ha) turned out to be 25; in experiment [3] (31 g ai/ha), 25; in experiment [3] (62 g ai/ha), 45; in experiment [3] (125 g ai/ha), 45. Besides, the “Plant response rating: Speedwell” value was found to be 75 in experiment [4] (16 g ai/ha), 75 in experiment [4] (31 g ai/ha), 85 in experiment [4] (62 g ai/ha) and 80 in experiment [4] (125 g ai/ha). Also, the “Plant response rating (0 to 100), Kochia” value in experiment [5] worked out at 85.

In the case of `COc1nc(-c2ccc(F)cc2)nn1Cc1ccnc(C(F)(F)F)c1` [Compound 9, 4-[[3-(4-fluorophenyl)-5-methoxy-1H-1,2,4-triazol-1-yl]methyl]-2-(trifluoromethyl)pyridine], the “Ragweed plant response rating (0 to 100)” value in experiment [1] (31 g ai/ha) came out at 25; in experiment [1] (62 g ai/ha) it was 60. In addition, the “Plant response rating (scale of 0 to 100 where 0 is no effect and 100 is complete control)” value in experiment [1] (125 g ai/ha) is reported as 60; in experiment [1] (250 g ai/ha) it was 85; in experiment [6] (125 g ai/ha), 45; in experiment [6] (250 g ai/ha) it was 90. The “Morningglory plant response rating (0 to 100)” value in experiment [6] (31 g ai/ha) was determined as 5; in experiment [6] (62 g ai/ha), 45.

`COc1nc(-c2ccccc2)nn1Cc1ccnc(C(F)(F)F)c1` [Compound 32]: the results for the “Ragweed plant response rating (0 to 100)” value in experiment [1] (31 g ai/ha) and in experiment [1] (62 g ai/ha) were 0 and 5, respectively. Further, the “Plant response rating (scale of 0 to 100 where 0 is no effect and 100 is complete control)” value in experiment [1] (125 g ai/ha) is listed as 10; in experiment [1] (250 g ai/ha), 65; in experiment [6] (125 g ai/ha) it was 5; in experiment [6] (250 g ai/ha), 45. Further, the “Morningglory plant response rating (0 to 100)” value in experiment [6] (31 g ai/ha) was 0; in experiment [6] (62 g ai/ha) it was 5.
